According to patent publication US6015878A, “Antitumor agents isolated from intestinal mucosa, a method for their isolation and their application” (Alexandrov, Christo Alexandrov, priority 1995, dated 2000):
Ends that are not written are not given here.

Experiments:
Type in all cases: in vivo
intestines [1] = experiment: Incorporation of H^3-thymidine (DNA synthesis) in intestines of treated mice; conditions: for Incorporation H^3-thymidine: 7 hours after treatment of mice, in comparison with control animals not treated with IEGs
Method: (§1) Laboratory experiments were carried out to accomplish the third object concerning the effect of preparations on biosynthetic processes which was assessed by the incorporation of H^3 -thymidine (DNA-synthesis) and C^14 -uridine (RNA synthesis) in various regions of the intestines of the mice tested. The preparation's morphogenic effect was assessed by the enterocytic cellularity and DNA concentration in the same regions.
(§2) Each fraction obtained in purifying IEG (see Object 1) was tested on mice. 3 mg of the peptide content of the fraction was administered intraperitoneally simultaneously with the testing reagent (isotope); the animals were then killed and investigated 7 hours afterwards. […] Both IEGs have a suppressive effect on DNA synthesis especially in the lower regions of intestines: IEG1 by 45%, IEG2 --by 48%. […] In this way it switches on the chain of molecular mechanisms by which it acts on the smooth muscle motility.

intestines [2] = experiment: Enterocytic cellularity in intestines of treated mice (morphogenic effect); conditions: for Cellularity: 7 hours after treatment of mice, in comparison with control animals not treated with IEGs
Method: as §1, §2

intestines [3] = experiment: DNA concentration in intestines of treated mice (morphogenic effect); conditions: 7 hours after treatment of mice, in comparison with control animals not treated with IEGs
Method: as §1, §2

intestines [4] = experiment: Incorporation of C^14-uridine (RNA synthesis) in intestines of treated mice; conditions: 7 hours after treatment of mice, in comparison with control animals not treated with IEGs
Method: as §1, §2

[5] = Middle section of the intestines

Arg-Arg-Asp-Asp-His-Arg-NH2 (RRDDHR-NH2) [IEG2, ID; NO]
Incorporation H^3-thymidine (intestines [1]; Duodenum): 77% | Incorporation H^3-thymidine (intestines [1]; Ileum): 55% | Incorporation H^3-thymidine (intestines [1]; Jejunum): 88% | Incorporation H^3-thymidine (intestines [1]; [5]): 48% | suppressive effect on DNA synthesis (intestines [1]; lower regions of intestines, mice, 3 mg intraperitoneally, 7 hours): 48% | Cellularity (intestines [2]; Duodenum): 88% | Cellularity (intestines [2]; Ileum): 85% | Cellularity (intestines [2]; Jejunum): 75% | Cellularity (intestines [2]; [5]): 83% | Average reduction in enterocyte number (intestines [2]; mice, 3 mg peptide content intraperitoneally, 7 hours): 20% | DNA concentration (intestines [3]; Duodenum): 68% | DNA concentration (intestines [3]; Ileum): 77% | DNA concentration (intestines [3]; Jejunum): 97% | DNA concentration (intestines [3]; [5]): 62% | Incorporation C^14-uridine (intestines [4]; Duodenum): 78% | Incorporation C^14-uridine (intestines [4]; Ileum): 74% | Incorporation C^14-uridine (intestines [4]; Jejunum): 78% | Incorporation C^14-uridine (intestines [4]; [5]): 74%
